From PubChem BioAssay (NCI)
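The concentration for 50% growth inhibition is given as GI50. The concentration for full growth arrest is given as TGI.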

What was measured:
Assay in all cases: NCI anticancer screen, dose series, 384-well format
[1] = system: EKVX NSCLC
[2] = system: CAKI-1 renal
[3] = system: MDA-MB-231 breast
[4] = system: CCRF-CEM leukemia
[5] = system: SK-OV-3 ovarian
[6] = system: SF-268 CNS
[7] = system: BT-549 breast
[8] = system: NCI-H460 NSCLC
[9] = system: LOX IMVI melanoma
[10] = system: OVCAR-5 ovarian
[11] = system: M14 melanoma
[12] = system: OVCAR-4 ovarian
[13] = system: HS 578T breast
[14] = system: MALME-3M melanoma
[15] = system: A498 renal
[16] = system: UACC-257 melanoma
[17] = system: KM12 colon
[18] = system: OVCAR-3 ovarian
[19] = system: COLO 205 colon
[20] = system: MDA-MB-435 melanoma
[21] = system: NCI-H226 lung
[22] = system: NCI/ADR-RES ovarian
[23] = system: T-47D breast
[24] = system: UACC-62 melanoma
[25] = system: NCI-H23 lung
[26] = system: HL-60(TB) leukemia
[27] = system: UO-31 renal
[28] = system: MOLT-4 leukemia
[29] = system: SK-MEL-5 melanoma
[30] = system: K-562 leukemia
[31] = system: RXF 393 renal
[32] = system: PC-3 prostate
[33] = system: SN12C renal
[34] = system: RPMI-8226 leukemia
[35] = system: DU-145 prostate
[36] = system: SK-MEL-28 melanoma
[37] = system: SW-620 colon
[38] = system: HOP-62 NSCLC
[39] = system: A549 NSCLC
[40] = system: SNB-19 CNS
[41] = system: HCT-15 colon
[42] = system: HT29 colon
[43] = system: ACHN renal
[44] = system: SR leukemia
[45] = system: OVCAR-8 ovarian
[46] = system: 786-0 renal
[47] = system: IGROV1 ovarian
[48] = system: NCI-H322M lung
[49] = system: SNB-75 CNS
[50] = system: TK-10 renal
[51] = system: SF-295 CNS
[52] = system: MCF7 breast
[53] = system: HCC-2998 colon
[54] = system: SF-539 CNS
[55] = system: HOP-92 NSCLC
[56] = system: MDA-MB-468 breast
[57] = system: NCI-H522 lung

In the case of `CN1CCN(c2cc(C(=O)Nc3cc4cc(-c5cnn(C)c5)ccc4cn3)ccn2)CC1`, the GI50 [1] is reported as 62.5 nM, the TGI [1] is reported as 1600 nM and the GI50 [2] is reported as 35.3 nM. It also gave a TGI [2] of 210 nM, a GI50 [3] of 87 nM and a TGI [3] of 654 nM. For the same compound, the GI50 [4] was 25.6 nM, the TGI [4] was 53.5 nM and the GI50 [5] was 28.1 nM. For the same compound, the TGI [5] was 112 nM, the GI50 [6] was 142 nM and the TGI [6] was 438 nM. It also gave a GI50 [7] of 28.3 nM, a TGI [7] of 71.4 nM and a GI50 [8] of 51 nM. For the same compound, the TGI [8] was 190 nM, the GI50 [9] was 51.7 nM and the TGI [9] was 172 nM. The GI50 [10] was 167 nM, the TGI [10] was 640 nM and the GI50 [11] was 75.9 nM. The TGI [11] was 221 nM, the GI50 [12] was 58.9 nM and the TGI [12] was 187 nM. It also gave a GI50 [13] of 38.9 nM, a TGI [13] of 152 nM and a GI50 [14] of 84.6 nM. It also gave a TGI [14] of 213 nM, a GI50 [15] of 32.8 nM and a TGI [15] of 158 nM. It also gave a GI50 [16] of 36.3 nM, a TGI [16] of 107 nM and a GI50 [17] of 32.9 nM. It also gave a TGI [17] of 209 nM, a GI50 [18] of 30.2 nM and a TGI [18] of 82.5 nM. The GI50 [19] was 26 nM, the TGI [19] was 64.1 nM and the GI50 [20] was 86.9 nM. It also gave a TGI [20] of 283 nM, a GI50 [21] of 131 nM and a TGI [21] of 370 nM. It also gave a GI50 [22] of 71.4 nM, a TGI [22] of 244 nM and a GI50 [23] of 67 nM. It also gave a TGI [23] of 340 nM, a GI50 [24] of 27.8 nM and a TGI [24] of 88.7 nM. The GI50 [25] was 18.9 nM, the TGI [25] was 47.5 nM and the GI50 [26] was 99.4 nM. For the same compound, the TGI [26] was 219 nM, the GI50 [27] was 158 nM and the TGI [27] was 3160 nM. The GI50 [28] was 18 nM, the TGI [28] was 33 nM and the GI50 [29] was 22.9 nM. For the same compound, the TGI [29] was 92.2 nM, the GI50 [30] was 52.8 nM and the TGI [30] was 345 nM. The GI50 [31] was 118 nM, the TGI [31] was 245 nM and the GI50 [32] was 76.7 nM. For the same compound, the TGI [32] was 514 nM, the GI50 [33] was 55.3 nM and the TGI [33] was 228 nM. The GI50 [34] was 24.5 nM, the TGI [34] was 49.1 nM and the GI50 [35] was 50.2 nM. The TGI [35] was 282 nM, the GI50 [36] was 125 nM and the TGI [36] was 259 nM. The GI50 [37] was 33.6 nM, the TGI [37] was 1580 nM and the GI50 [38] was 31.8 nM. For the same compound, the TGI [38] was 145 nM, the GI50 [39] was 30.7 nM and the TGI [39] was 129 nM. It also gave a GI50 [40] of 41.6 nM, a TGI [40] of 10200 nM and a GI50 [41] of 39.1 nM. It also gave a TGI [41] of 157 nM, a GI50 [42] of 138 nM and a TGI [42] of 286 nM. For the same compound, the GI50 [43] was 47.5 nM, the TGI [43] was 219 nM and the GI50 [44] was 19.5 nM. It also gave a TGI [44] of 40.8 nM, a GI50 [45] of 72.4 nM and a TGI [45] of 302 nM. It also gave a GI50 [46] of 154 nM, a TGI [46] of 316 nM and a GI50 [47] of 52.1 nM. The TGI [47] was 255 nM, the GI50 [48] was 68.2 nM and the TGI [48] was 858 nM. The GI50 [49] was 105 nM, the TGI [49] was 261 nM and the GI50 [50] was 116 nM. It also gave a TGI [50] of 442 nM, a GI50 [51] of 99.8 nM and a TGI [51] of 314 nM. For the same compound, the GI50 [52] was 55.9 nM, the TGI [52] was 221 nM and the GI50 [53] was 105 nM. For the same compound, the TGI [53] was 287 nM, the GI50 [54] was 121 nM and the TGI [54] was 322 nM. The GI50 [55] was 39.6 nM, the TGI [55] was 398 nM and the GI50 [56] was 26.8 nM. For the same compound, the TGI [56] was 53.9 nM, the GI50 [57] was 26.6 nM and the TGI [57] was 65.5 nM.
